Measured values published in patent US7829589B2, “Sulfonamide compounds and uses thereof” (Elixir Pharmaceuticals, Inc., priority 2005, dated 2010).
pKi: −log10 of the molar value.

Biological target: GHS-R (Homo sapiens, UniProt Q92847)
Assay: GHS-R antagonist activity (Ki) in a cell based assay
Protocol: Cell-Based Activity Assays. For example, the ability of the compound to modulate accumulation of a second messenger signaling component downstream of GHS-R can be evaluated. For example, inositol phosphates (IP), as a result of Gq signaling in a mammalian cell, e.g., a Cos-7 cells. Other tissue culture cells, Xenopus oocytes, and primary cells can also be used.
Phosphatidylinositol turnover assay. One day after transfection COS-7 cells are incubated for 24 hours with 5 μCi of [^3H]-myo-inositol in 1 ml medium supplemented with 10% fetal calf serum, 2 mM glutamine and 0.01 mg/ml gentamicin per well. Cells are then washed twice in buffer, 20 mM HEPES, pH 7.4, supplemented with 140 mM NaCl, 5 mM KCl, 1 mM MgSO4, 1 mM CaCl2, 10 mM glucose, 0.05% (w/v) bovine serum; and incubated in 0.5 ml buffer supplemented with 10 mM LiCl at 37° C. for 30 min. For some assays, it is also useful to incubate the cells with adenosine deaminase ADA (200 U/mg, Boehringer Mannheim, Germany) for 30 min in a concentration of 1 U/ml.
After incubation with the compound of interest for 45 min at 37° C., cells are extracted with 10% ice-cold perchloric acid and placed on ice for 30 min. The resulting supernatants are neutralized with KOH in HEPES buffer, and [^3H]-inositol phosphate is purified on Bio-Rad AG 1-X8 anion exchange resin as described. Assays can be run in duplicate, triplicate, etc. […]

Chain of GHS-R (Q92847 whole entry, species assumed): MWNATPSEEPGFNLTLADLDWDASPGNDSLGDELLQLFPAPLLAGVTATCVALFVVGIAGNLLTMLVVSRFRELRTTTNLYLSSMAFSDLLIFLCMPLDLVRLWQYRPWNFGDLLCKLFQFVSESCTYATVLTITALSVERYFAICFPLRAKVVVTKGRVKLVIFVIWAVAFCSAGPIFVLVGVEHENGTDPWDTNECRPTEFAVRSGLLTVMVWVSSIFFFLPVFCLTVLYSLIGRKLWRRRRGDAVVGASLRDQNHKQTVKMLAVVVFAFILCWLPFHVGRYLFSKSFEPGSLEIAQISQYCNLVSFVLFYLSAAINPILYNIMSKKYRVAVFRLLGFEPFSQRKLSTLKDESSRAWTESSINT

| pKi | Compound |
| --- | --- |
| 6.00 to 6.30 | CCN(CC)CCCS(=O)(=O)N[C@H](COCc1ccccc1)c1nc(-c2ccccc2)no1 [Compound 1, 3-Diethylamino-propane-1-sulfonic acid [(R)-2-benzyloxy-1-(3-phenyl-[1,2,4]oxadiazol-5-yl)-ethyl]-amide] |
| > 7.00 | CCN(CC)CCCS(=O)(=O)N[C@H](COCc1ccccc1)c1nc(-c2c(Cl)cccc2Cl)no1 [Compound 2, 3-Diethylamino-propane-1-sulfonic acid {(R)-2-benzyloxy-1-[3-(2,6-dichloro-phenyl)-[1,2,4]oxadiazol-5-yl]-ethyl}-amide] |
| > 7.00 | CCN(CC)CCCS(=O)(=O)N[C@H](CCc1ccccc1)c1nc(-c2cccc(Cl)c2Cl)n[nH]1 [Compound 3, 3-Diethylamino-propane-1-sulfonic acid {(R)-1-[5-(2,3-dichloro-phenyl)-2H-[1,2,4]triazol-3-yl]-3-phenyl-propyl}-amide] |
| > 7.00 | CCN(CC)CCCS(=O)(=O)N[C@H](CCc1ccccc1)c1nc(-c2ccccc2C)no1 [Compound 4, 3-Diethylamino-propane-1-sulfonic acid [(R)-3-phenyl-1-(3-o-tolyl-[1,2,4]oxadiazol-5-yl)-propyl]-amide] |
| > 7.00 | CCN(CC)CCCS(=O)(=O)N[C@H](CCc1ccccc1)c1nc(Cc2ccc(F)cc2)n[nH]1 [Compound 5, 3-Diethylamino-propane-1-sulfonic acid {(R)-1-[5-(4-fluoro-benzyl)-2H-[1,2,4]triazol-3-yl]-3-phenyl-propyl}-amide] |
| > 7.00 | CCN(CC)CCCS(=O)(=O)N[C@H](CCc1ccccc1)c1nc(-c2ccccc2)no1 [Compound 6, 3-Diethylamino-propane-1-sulfonic acid [(R)-3-phenyl-1-(3-phenyl-[1,2,4]oxadiazol-5-yl)-propyl]-amide] |
| > 7.00 | CCN(CC)CCCS(=O)(=O)N[C@H](CCc1ccccc1)c1nc(-c2ccsc2)n[nH]1 [Compound 7, 3-Diethylamino-propane-1 sulfonic acid [(R)-3-phenyl-1-(5-thiophen-3-yl-2H-[1,2,4]triazol-3-yl)-propyl]-amide] |
| > 7.00 | CCN(CC)CCCS(=O)(=O)N[C@H](CCc1ccccc1)c1nc(-c2c(F)cc(F)cc2F)n[nH]1 [Compound 8, 3-Diethylamino-propane-1-sulfonic acid {(R)-3-phenyl-1-[5-(2,4,6-trifluoro-phenyl)-2H-[1,2,4]triazol-3-yl]-propyl}-amide] |
| 6.30 to 7.00 | CCN(CC)CCCS(=O)(=O)N[C@H](CCc1ccccc1)c1nc(-c2ncccc2C)no1 [Compound 9, 3-Diethylamino-propane-1-sulfonic acid {(R)-1-[3-(3-methyl-pyridin-2-yl)-[1,2,4]oxadiazol-5-yl]-3-phenyl-propyl}-amide] |
| 6.30 to 7.00 | CCN(CC)CCCS(=O)(=O)N[C@H](CCc1ccccc1)c1nc(-c2c(C)cccc2Cl)no1 [Compound 10, 3-Diethylamino-propane-1-sulfonic acid {(R)-1-[3-(2-chloro-6-methyl-phenyl)-[1,2,4]oxadiazol-5-yl]-3-phenyl-propyl}-amide] |
| > 7.00 | CCN(CC)CCCS(=O)(=O)N[C@H](CCc1ccccc1)c1nc(-c2ccc3c(c2)OCO3)n[nH]1 [Compound 11, 3-Diethylamino-propane-1-sulfonic acid [(R)-1-(5-benzo[1,3]dioxol-5-yl-2H-[1,2,4]triazol-3-yl)-3-phenyl-propyl]-amide] |
| > 7.00 | CCN(CC)CCCS(=O)(=O)N[C@H](CCc1ccccc1)c1nc(-c2c(Cl)cccc2Cl)no1 [Compound 12, 3-Diethylamino-propane-1-sulfonic acid {(R)-1-[3-(2,6-dichloro-phenyl)-[1,2,4]oxadiazol-5-yl]-3-phenyl-propyl}-amide] |

| Compound | pKi |
| --- | --- |
| 3-Diethylamino-propane-1-sulfonic acid {(R)-1-[3-(5-bromo-pyridin-3-yl)-[1,2,4]oxadiazol-5-yl]-phenyl-propyl}-amide [Compound 103] | 6.30 to 7.00 |
